This is an account of results in ChEMBL document CHEMBL1148213, “Diterpenoids from Isodon melissoides” (J Nat Prod, 2004).

In brackets after ≈: the same amount, converted by molar mass.

For this assay, the system named is BGC-823. Put plainly: Cytotoxicity against human BGC823 cells. The assay is classed as functional, cell-based.
Regarding `C=C1[C@@H]2C[C@H](O)[C@@H]3[C@](C2)(C[C@H](OC(C)=O)[C@@H]2C(C)(C)[C@@H](OC(C)=O)C[C@H](O)[C@]23C)[C@@H]1O`, the Activity entry was “Not toxic”.
Consider `C=C1[C@@H]2C[C@H](O)[C@@H]3[C@](C2)(C[C@H](OC(C)=O)[C@@H]2C(C)(C)[C@@H](OC(C)=O)C[C@H](OC(C)=O)[C@]23C)[C@@H]1O`, for which the Activity entry is “Not toxic”.
The same measure, in the same setting: in the case of `C=C1[C@@H]2C[C@H](O)[C@H]3[C@]4(C)CC[C@H](O)C(C)(C)[C@H]4[C@@H](OC(C)=O)C[C@]3(C2)[C@@H]1O` it was “Not toxic”.
With `C=C1[C@@H]2C[C@H](O)[C@H]3[C@]4(C)CC[C@H](O)C(C)(C)[C@H]4[C@@H](OC(C)=O)[C@H](O)[C@]3(C2)[C@@H]1O`, the Activity entry is “Not toxic”.
On the same count and under the same terms, in the case of `C=C1[C@@H]2C[C@H](O)[C@H]3[C@]4(C)CC[C@H](O)C(C)(C)[C@H]4[C@@H](OC(C)=O)[C@H](OC(C)=O)[C@]3(C2)[C@@H]1O` it was “Not toxic”; in that of `C=C1[C@@H]2C[C@H](O)[C@H]3[C@]4(C)CC[C@H](OC(C)=O)C(C)(C)[C@H]4[C@@H](OC(C)=O)C[C@]3(C2)[C@@H]1O`, “Not toxic”; in that of `C=C1[C@@H]2C[C@H](O)[C@H]3[C@]4(C)CC[C@H](OC(C)=O)C(C)(C)[C@H]4[C@@H](OC(C)=O)[C@H](OC(C)=O)[C@]3(C2)[C@@H]1O`, “Not toxic”.
The IC50 is the concentration at which inhibition is half-maximal. Low readings indicate greater potency in that assay, high ones weaker potency in that assay. The compound `C=C1C(=O)[C@]23C[C@H]1C[C@H](O)[C@H]2[C@]1(C)CC[C@H](OC(C)=O)C(C)(C)[C@H]1[C@@H](OC(C)=O)[C@@H]3OC(C)=O` [DAWOENSIN A] came in with an IC50 of 3.54 µg/mL (≈ 7.43 µM).
The compound `C=C1C(=O)[C@]23C[C@H]1C[C@H](O)[C@H]2[C@]1(C)CC[C@H](OC(C)=O)C(C)(C)[C@H]1[C@@H](OC(C)=O)[C@@H]3O` [MELISSOIDESIN G] came in with a 50% inhibitory concentration (IC50) of 6.62 µg/mL (≈ 15.2 µM).
The compound `C=C1C(=O)[C@]23C[C@H]1C[C@H](O)[C@H]2[C@]1(C)CC[C@H](O)C(C)(C)[C@H]1[C@@H](OC(C)=O)C3` [MELISSOIDESIN N] had an IC50 of 0.036 µg/mL (≈ 0.0956 µM).
In the case of `C=C1C(=O)[C@]23C[C@H]1C[C@H](O)[C@H]2[C@]1(C)CC[C@H](OC(C)=O)C(C)(C)[C@H]1[C@@H](OC(C)=O)C3` [MELISSOIDESIN O], 7.83 µg/mL (≈ 18.7 µM) corresponded to half-maximal inhibition (IC50).
In the case of `C=C1C(=O)[C@]23C[C@H]1C[C@H](O)[C@H]2[C@@]1(C)[C@H]([C@@H](OC(C)=O)C3)C(C)(C)[C@@H](OC(C)=O)C[C@@H]1O` [MELISSOIDESIN S], the half-inhibitory concentration (IC50) was found to be 7.71 µg/mL (≈ 17.7 µM).
For the compound `CC[C@]1(O)C[C@H]2CN(CCc3c([nH]c4ccccc34)[C@@](C(=O)OC)(c3cc4c(cc3OC)N(C=O)[C@H]3[C@@](O)(C(=O)OC)[C@H](OC(C)=O)[C@]5(CC)C=CCN6CC[C@]43[C@@H]65)C2)C1` [VINCRISTINE], 0.066 µg/mL (≈ 0.08 µM) corresponded to half-maximal inhibition (IC50).
Regarding `C=C1C(=O)[C@]23C[C@H]1C[C@H](O)[C@H]2[C@]1(C)CC[C@H](O)C(C)(C)[C@H]1[C@@H](OC(C)=O)[C@@H]3O` [XINDONGNIN B], the concentration for half-maximal inhibition (IC50) is 9.45 µg/mL (≈ 24.1 µM).
